Laboratory results as given in patent US20240124406A1, “INHIBITORS OF TRANSCRIPTIONAL ENHANCED ASSOCIATE DOMAIN (TEAD) AND USES THEREOF” (Dana-Farber Cancer Institute, Inc., priority 2020, published 2024).

test system: NCI-H226 cells; test: Antiproliferation assay (2D adherent cell viability, CellTiter-Glo); format: cell-based; details: Homo sapiens, 120 h, 5 days treatment, cell viability by CellTiter-Glo
Protocol: The compounds were evaluated in vitro. In addition, an anti-proliferation assay was performed using NCI-H226 cells (FIG. 2).
The mixture of 2-fluoro-5-nitrobenzonitrile (1 g, 6.0 mmol), cyclohexanamine (0.6For 2D adherent cell viability experiment, the cells were seeded at 384-well plate (Corning, no. 3570) at the density of 200 cells/well. The next day, compounds were added using Janus workstation (PerkinElmer). After 5 days treatment, the cell viability was measured by CellTiter-Glo kit (Promega, no. G7570) as the manufacturer recommended.

IC50 [nM] | Compound
8 | C=CC(=O)Nc1ccc(NC2CCC(F)(F)CC2)c(-c2ncccn2)c1 [Compound A-5, N-(4-(4,4-difluorocyclohexylamino)-3-(pyrimidin-2-yl)phenyl)acrylamide]
17 | C=CC(=O)Nc1ccc(Nc2ccc(C(F)(F)F)cc2)c(-c2nccc(N3CCC(O)C3)n2)c1 (stereo not shown) [Compound A-7, N-(3-(4-(3-hydroxypyrrolidin-1-yl)pyrimidin-2-yl)-4-(4-(trifluoromethyl)phenylamino)phenyl)acrylamide]
40 | C=CC(=O)Nc1ccc(Nc2ccc(C(F)(F)F)cc2)c(-c2nccc(OCCO)n2)c1 [Compound A-11, N-(3-(4-(2-hydroxyethoxy)pyrimidin-2-yl)-4-(4-(trifluoromethyl)phenylamino)phenyl)acrylamide]
14 | C=CC(=O)Nc1cnc(Oc2ccc(C(F)(F)F)cc2)c(-c2ncccn2)c1 [Compound A-12, N-(5-(pyrimidin-2-yl)-6-(4-(trifluoromethyl)phenoxy)pyridin-3-yl)acrylamide]
31 | C=CC(=O)Nc1ccc(Nc2ccc(C(F)(F)F)cc2)c(-c2cccnn2)c1 [Compound A-13, N-(3-(pyridazin-3-yl)-4-(4-(trifluoromethyl)phenylamino)phenyl) acrylamide]
1100 | C=CC(=O)Nc1ccc(Nc2ccc(C(F)(F)F)cc2)c(-c2cc[nH]c(=O)c2)c1 [Compound A-14, N-(3-(2-oxo-1,2-dihydropyridin-4-yl)-4-(4-(trifluoromethyl)phenylamino)phenyl)acrylamide]
4 | C=CC(=O)Nc1ccc(Nc2ccc(C(F)(F)F)cc2)c(-c2ncccn2)c1 [Compound A-21, N-(3-(pyrimidin-2-yl)-4-(4-(trifluoromethyl)phenylamino)phenyl) Acrylamide]
